Laboratory results: US9346782B2, “Alkyl linked quinolinyl modulators of RORγt” (Janssen Pharmaceutica NV, priority 2013, dated 2016)
Counter-ions that a name gives are not always drawn.

What was measured:
human RORγt LBD = human RORγt LBD (Homo sapiens (Human), UniProt P51449); test: RORγt Reporter Assay; type: cell-based; conditions: for IC50 / RORγt reporter Assay, % inhibition @ 6 μM: HEK293T cells; for inhibition at 6 µM: HEK-293T, read-out: RORγt reporter Assay, % inhibition @ 6 μM, HEK293T cells, 6 μM
human RORγt LBD, sequence (P51449 258-518): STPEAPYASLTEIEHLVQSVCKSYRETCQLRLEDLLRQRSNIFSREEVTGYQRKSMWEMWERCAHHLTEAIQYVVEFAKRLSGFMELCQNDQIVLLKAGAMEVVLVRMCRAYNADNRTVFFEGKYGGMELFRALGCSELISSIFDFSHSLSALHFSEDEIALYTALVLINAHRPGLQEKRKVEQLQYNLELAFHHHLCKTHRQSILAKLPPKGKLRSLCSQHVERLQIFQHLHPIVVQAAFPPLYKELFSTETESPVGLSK
From the text: A reporter assay was used to test functional activity of RORγt modulatory compounds on transcriptional activation driven by the RORγt LBD. Cells used in the assay were co-transfected with two constructs. The first construct, pBIND-RORγt LBD, contained the wild type human RORγt LBD fused to the DNA binding domain of the GAL4 protein. The second construct, pGL4.31 (Promega Cat no. C935A), contained multiple GAL4 responsive DNA elements upstream of firefly luciferase. […] The mutant construct was called pBIND-RORγt-AF2.
The pBIND vector contains the GAL4 DNA Binding Domain (GAL4 DBD) and the renilla luciferase gene under control of the SV40 promoter. Renilla luciferase expression serves as a control for transfection efficiency and cell viability.
The reporter assay was performed by transiently transfecting HEK293T cells with 5 μg of pBIND-RORγt LBD or pBIND-RORγt LBD-AF2 and 5 μg pGL4.31 (Promega Cat no. C935A) using Fugene 6 (Invitrogen Cat no. E2691) at a 1:6 ratio of DNA:Fugene 6 in a T-75 flask in which cells were at least 80% confluent. Twenty four hours after bulk transfection, cells were plated into 96-well plates at 50,000 cells/well in phenol-red free DMEM containing 5% Lipid Reduced FCS and Pen/Strep. Six hours after plating, cells were treated with compounds for 24 hours. Media was removed and cells were lysed with 50 μL 1× Glo Lysis Buffer (Promega). Dual Glo Luciferase Reagent (50 μL/well) was then added and firefly luciferase luminescence was read on an Envision after a ten minute incubation. Finally, Stop and Glo reagent (50 μL/well) was added and renilla luciferase luminescence was read on an Envision after a ten minute incubation. To calculate the effect of compounds on RORγt activity, the ratio of firefly to renilla luciferase was determined and plotted against compound concentration. Agonist compounds increase RORγt-driven luciferase expression, and antagonist or inverse agonist compounds decrease luciferase expression.

[1] = system: IL-17 production by CD4 T cells; test: Human Th17 Assay; type: cell-based; conditions: Homo sapiens, 72 h, 3 days
From the text: The human Th17 assay tests the effect of RORγt modulatory compounds on IL-17 production by CD4 T cells under conditions which favor Th17 differentiation. Total CD4^+ T cells were isolated from the peripheral blood mononuclear cells (PBMC) of healthy donors using a CD4^+ T cell isolation kit II, following the manufacturer's instructions (Miltenyi Biotec). Cells were resuspended in a medium of RPMI-1640 supplemented with 10% fetal bovine serum, penicillin, streptomycin, glutamate, and β-mercaptoethanol and were added to 96-well plates at 1.5×10^5 per 100 μL per well. 50 μL of compound at titrated concentrations in DMSO were added into each well at final DMSO concentration at 0.2%. Cells were incubated for 1 hour, then 50 μL of Th17 cell differentiation medium was added to each well. The final concentrations of antibodies and cytokines (R&D Systems) in differentiation medium were: 3×10^6/mL anti-CD3/CD28 beads (prepared using human T cell activation/expansion kit, Miltenyi Biotec), 10 μg/mL anti-IL4, 10 μg/mL anti-IFNγ, 10 ng/mL IL1β, 10 ng/mL IL23, 50 ng/mL IL6, 3 ng/mL TGFβ and 20 U/mL IL2. Cells were cultured at 37° C. and 5% CO2 for 3 days. Supernatants were collected and the accumulated IL-17 in culture was measured by using MULTI-SPOT® Cytokine Plate following manufacture's instruction (Meso Scale Discovery). The plate was read using Sector Imager 6000, and IL-17 concentration was extrapolated from the standard curve. The IC50s were determined by GraphPad.

SMILES | IC50 (human RORγt LBD) [nM] | inhibition at 6 µM (human RORγt LBD) [%] | RORγt reporter Assay, % inhibition @ 6 μM (human RORγt LBD) [%] | IC50 ([1]; CD4+ T) [nM] | IC50 [1] [nM]
C#CC(O)(c1ccc2nc(OC)c(Cc3ccc(C(F)(F)F)cc3)c(Cl)c2c1)C1CN(C(C)=O)C1 (single isomer, unassigned) [Example 7b, 1-(3-(1-(4-chloro-2-methoxy-3-(4-(trifluoromethyl)benzyl)quinolin-6-yl)-1-hydroxyprop-2-yn-1-yl)azetidin-1-yl)ethanone] | 360 | 97 |  |  | 
C#CC(O)(c1ccc2nc(OC)c(Cc3ccc(C(F)(F)F)cc3)c(Cl)c2c1)C1CN(C(C)=O)C1 (single isomer, unassigned) [Example 7c, 1-(3-(1-(4-chloro-2-methoxy-3-(4-(trifluoromethyl)benzyl)quinolin-6-yl)-1-hydroxyprop-2-yn-1-yl)azetidin-1-yl)ethanone] | 98 |  | 94 | 320 | 
COc1nc2ccc(C(C)(O)c3cncn3C)cc2c(Cl)c1Cc1ccc(C(F)(F)F)cc1 (single isomer, unassigned) [Example 9b, 1-(4-Chloro-2-methoxy-3-(4-(trifluoromethyl)benzyl)quinolin-6-yl)-1-(1-methyl-1H-imidazol-5-yl)ethanol] | 1300 | 89 |  |  | 
COc1nc2ccc(C(C)(O)c3cncn3C)cc2c(Cl)c1Cc1ccc(C(F)(F)F)cc1 (single isomer, unassigned) [Example 9c, 1-(4-Chloro-2-methoxy-3-(4-(trifluoromethyl)benzyl)quinolin-6-yl)-1-(1-methyl-1H-imidazol-5-yl)ethanol] | 180 |  | 98 | 280 | 
COc1nc2ccc(C(C)(O)c3oc(C)nc3C)cc2c(Cl)c1Cc1ccc(C(F)(F)F)cc1 (single isomer, unassigned) [Example 10a, 1-(4-Chloro-2-methoxy-3-(4-(trifluoromethyl)benzyl)quinolin-6-yl)-1-(2,4-dimethyloxazol-5-yl)ethanol] | 250 | 101 |  |  | 
COc1nc2ccc(C(C)(O)c3oc(C)nc3C)cc2c(Cl)c1Cc1ccc(C(F)(F)F)cc1 (single isomer, unassigned) [Example 10b, 1-(4-Chloro-2-methoxy-3-(4-(trifluoromethyl)benzyl)quinolin-6-yl)-1-(2,4-dimethyloxazol-5-yl)ethanol] | 260 |  | 96 | 640 | 
COc1nc2ccc(C(C)(O)c3oc(C)nc3C)cc2c(Cl)c1Cc1ccc(C(F)(F)F)cc1 (single isomer, unassigned) [Example 10c, 1-(4-Chloro-2-methoxy-3-(4-(trifluoromethyl)benzyl)quinolin-6-yl)-1-(2,4-dimethyloxazol-5-yl)ethanol] | 330 | 95 |  | 550 | 
CCCCC(O)(c1ccc2nc(Cl)c(-c3ccccc3)c(Cl)c2c1)c1cc(C)no1 (stereo not shown) [Example 1, 1-(2,4-Dichloro-3-phenylquinolin-6-yl)-1-(3-methylisoxazol-5-yl)pentan-1-ol.TFA] |  |  |  |  | ~3000
CCC(O)(c1ccc2nc(Cl)c(-c3ccccc3)c(Cl)c2c1)c1cc(C)no1 (stereo not shown) [Example 2, 1-(2,4-Dichloro-3-phenylquinolin-6-yl)-1-(3-methylisoxazol-5-yl)propan-1-ol.TFA] |  |  |  |  | ~6000
Cn1cncc1C(O)(c1ccc2nc(Cl)c(-c3ccccc3)c(Cl)c2c1)C1CC1 (stereo not shown) [Example 3, Cyclopropyl(2,4-dichloro-3-phenylquinolin-6-yl)(1-methyl-1H-imidazol-5-yl)methanol] | > 6000 | 56 |  |  | 
CCCCC(O)(c1ccc2nc(Cl)c(-c3ccccc3)c(Cl)c2c1)c1cncn1C (stereo not shown) [Example 4, 1-(2,4-Dichloro-3-phenylquinolin-6-yl)-1-(1-methyl-1H-imidazol-5-yl)pentan-1-ol.TFA] | 1500 | 114 |  |  | 
CC(C)C(O)(c1ccc2nc(Cl)c(-c3ccccc3)c(Cl)c2c1)c1cncn1C (stereo not shown) [Example 5, 1-(2,4-Dichloro-3-phenylquinolin-6-yl)-2-methyl-1-(1-methyl-1H-imidazol-5-yl)propan-1-ol] | 1300 | 118 |  |  | 
CCC(O)(c1ccc2nc(OC)c(Cc3ccc(S(C)(=O)=O)cc3)c(Cl)c2c1)c1cncn1C (stereo not shown) [Example 6, 1-(4-Chloro-2-methoxy-3-(4-(methylsulfonyl)benzyl)quinolin-6-yl)-1-(1-methyl-1H-imidazol-5-yl)propan-1-ol] | 1700 | 76 |  |  | 
C#CC(O)(c1ccc2nc(OC)c(Cc3ccc(C(F)(F)F)cc3)c(Cl)c2c1)C1CN(C(C)=O)C1 (stereo not shown) [Example 7a, 1-(3-(1-(4-Chloro-2-methoxy-3-(4-(trifluoromethyl)benzyl)quinolin-6-yl)-1-hydroxyprop-2-yn-1-yl)azetidin-1-yl)ethanone] | 230 | 95 |  |  | 
C#CC(O)(c1ccc2nc(OC)c(Cc3ccc(C(F)(F)F)cc3)c(Cl)c2c1)C1CN(C(=O)OC(C)(C)C)C1 (stereo not shown) [Example 8, tert-Butyl-3-(1-(4-chloro-2-methoxy-3-(4-(trifluoromethyl)benzyl)quinolin-6-yl)-1-hydroxyprop-2-yn-1-yl)azetidine-1-carboxylate] | 4000 | 71 |  |  | 
COc1nc2ccc(C(C)(O)c3cncn3C)cc2c(Cl)c1Cc1ccc(C(F)(F)F)cc1 (stereo not shown) [Example 9a, 1-(4-Chloro-2-methoxy-3-(4-(trifluoromethyl)benzyl)quinolin-6-yl)-1-(1-methyl-1H-imidazol-5-yl)ethanol] | 280 | 98 |  |  | 
COc1nc2ccc(C(C)(O)c3cnnn3C)cc2c(Cl)c1Cc1ccc(C(F)(F)F)cc1 (stereo not shown) [Example 11a, 1-(4-Chloro-2-methoxy-3-(4-(trifluoromethyl)benzyl)quinolin-6-yl)-1-(1-methyl-1H-1,2,3-triazol-5-yl)ethanol] | 110 | 102 |  |  | 
COc1nc2ccc(C(C)(O)c3cnc(C)n3C)cc2c(Cl)c1Cc1ccc(C(F)(F)F)cc1 (stereo not shown) [Example 12a, 1-(4-Chloro-2-methoxy-3-(4-(trifluoromethyl)benzyl)quinolin-6-yl)-1-(1,2-dimethyl-1H-imidazol-5-yl)ethanol] | 370 | 99 |  |  | 
COc1nc2ccc(C(C)(O)c3ccc(C)nc3C)cc2c(Cl)c1Cc1ccc(C(F)(F)F)cc1 (stereo not shown) [Example 13a, 1-(4-Chloro-2-methoxy-3-(4-(trifluoromethyl)benzyl)quinolin-6-yl)-1-(2,6-dimethylpyridin-3-yl)ethanol] | 52 | 103 |  |  | 
C#CC(O)(c1ccc2nc(OC)c(Cc3ccc(C(F)(F)F)cc3)c(Cl)c2c1)c1cnc(C)n1C (stereo not shown) [Example 14a, 1-(4-Chloro-2-methoxy-3-(4-(trifluoromethyl)benzyl)quinolin-6-yl)-1-(1,2-dimethyl-1H-imidazol-5-yl)prop-2-yn-1-ol] | 210 | 81 |  |  | 
Cc1nc(C)c(C(O)(c2ccc3nc(Cl)c(-c4ccccc4)c(Cl)c3c2)C(C)C)s1 (stereo not shown) [Example 15, 1-(2,4-Dichloro-3-phenylquinolin-6-yl)-1-(2,4-dimethylthiazol-5-yl)-2-methylpropan-1-ol] | ~500 | 99 |  |  | 
CCC(O)(c1ccc2nc(OC)c(Cc3ccc(C(F)(F)F)cc3)c(Cl)c2c1)C1CN(C(=O)OC(C)(C)C)C1 (stereo not shown) [Example 17, tert-Butyl-3-(1-(4-chloro-2-methoxy-3-(4-(trifluoromethyl)benzyl)quinolin-6-yl)-1-hydroxypropyl)azetidine-1-carboxylate] | 500 | 98 |  |  | 
